Results taken from ChEMBL document CHEMBL1681729, “2-aminomethylphenylamine as a novel scaffold for factor Xa inhibitor” (Bioorg Med Chem, 2011).
Values after ≈ are worked out from the molar mass of the structure shown.

Key:
[1] = Distribution coefficient, log D of the compound at pH 7.4 by LC-MS; type: physicochemical; details: octanol/water
[2] = Solubility of the compound in Japanese Pharmacopoeia First Fluid of pH 1.2 by HPLC; type: physicochemical
[3] = Solubility of the compound in Japanese Pharmacopoeia First Fluid of pH 6.8 by HPLC; type: physicochemical
Coagulation factor X = Coagulation factor X (Homo sapiens, UniProt P00742); assay: Inhibition of factor 10a by S2222 chromogenic substrate assay by chromogenic assay
Plasma = assay: Anticoagulant activity in human plasma assessed as concentration required to double prothrombin time; type: functional
Rattus norvegicus [4] = assay: Inhibition of factor 10a in overnight fasted Wistar rat plasma at 10 mg/kg, po after 0.5 hrs by S2222 chromogenic substrate assay; type: functional
Rattus norvegicus [5] = assay: Inhibition of factor 10a in overnight fasted Wistar rat plasma at 10 mg/kg, po after 1 hr by S2222 chromogenic substrate assay; type: functional
Rattus norvegicus [6] = assay: Inhibition of factor 10a in overnight fasted Wistar rat plasma at 10 mg/kg, po after 4 hrs by S2222 chromogenic substrate assay; type: functional
Rattus norvegicus [7] = assay: Inhibition of factor 10a in overnight fasted Wistar rat plasma at 10 mg/kg, po after 2 hrs by S2222 chromogenic substrate assay; type: functional
[8] = AUC (0 to 24 hrs) in serum of cynomolgus monkey at 1 mg/kg, po after 0.5 to 24 hrs; type: ADME, organism-based, Macaca fascicularis; parameters: time < 24 hr, dose 1 mg/kg, route oral
[9] = Tmax in serum of cynomolgus monkey at 1 mg/kg, po after 0.5 to 24 hrs; type: ADME, organism-based, Macaca fascicularis; parameters: dose 1 mg/kg, route oral
[10] = Cmax in serum of cynomolgus monkey at 1 mg/kg, po after 0.5 to 24 hrs by LC/MS/MS coupled with HPLC; type: ADME, organism-based, Macaca fascicularis; parameters: dose 1 mg/kg, route oral
[11] = Half life in serum of cynomolgus monkey at 1 mg/kg, po after 0.5 to 24 hrs; type: ADME, organism-based, Macaca fascicularis; parameters: dose 1 mg/kg, route oral

Sequence of Coagulation factor X (P00742 41-179 limits assumed): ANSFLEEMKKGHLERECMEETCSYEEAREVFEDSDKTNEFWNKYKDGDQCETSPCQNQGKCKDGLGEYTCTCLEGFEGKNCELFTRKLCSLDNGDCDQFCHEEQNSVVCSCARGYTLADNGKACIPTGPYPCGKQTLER
Sequence of Coagulation factor X (P00742 235-488 limits assumed): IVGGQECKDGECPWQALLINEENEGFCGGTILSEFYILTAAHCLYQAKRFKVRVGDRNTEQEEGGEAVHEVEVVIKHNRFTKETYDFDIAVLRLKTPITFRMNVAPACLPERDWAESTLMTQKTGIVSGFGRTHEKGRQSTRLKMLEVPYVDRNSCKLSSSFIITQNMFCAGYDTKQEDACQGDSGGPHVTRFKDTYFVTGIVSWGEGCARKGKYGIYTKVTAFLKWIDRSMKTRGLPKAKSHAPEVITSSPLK

Row | Structure (SMILES) | logD [1] | solubility [2] | solubility [3] | IC50 (Coagulation factor X) | Activity (Plasma) | also measured
1 | CN1CCc2nc(C(=O)NCCCNC(=O)c3ccc(Cl)s3)sc2C1 | – | – | – | 93 nM | 7.6 µM | –
2 | CN1CCc2nc(C(=O)N3CCC(NC(=O)c4ccc(Cl)s4)CC3)sc2C1 | – | – | – | 1020 nM | >20 µM | –
3 | CN1CCc2nc(C(=O)N3CCCC(CNC(=O)c4ccc(Cl)s4)C3)sc2C1 (stereo unspecified) | – | – | – | 6830 nM | – | –
4 | CN1CCc2nc(C(=O)Nc3ccccc3CNC(=O)c3ccc(Cl)cn3)sc2C1 | 2.8 | 350 µg/mL (≈ 792 µM) | 380 µg/mL (≈ 860 µM) | 2480 nM | – | –
5 | CN1CCc2nc(C(=O)Nc3ccccc3CNC(=O)c3ccc(Cl)cc3)sc2C1 | 3.4 | 560 µg/mL (≈ 1270 µM) | 42 µg/mL (≈ 95.2 µM) | 642 nM | – | –
6 | CN1CCc2nc(C(=O)Nc3ccccc3CNC(=O)c3cc(Cl)ccn3)sc2C1 | 2.7 | 760 µg/mL (≈ 1720 µM) | 150 µg/mL (≈ 339 µM) | 4150 nM | – | –
7 | CN1CCc2nc(C(=O)Nc3ccccc3CNC(=O)c3cccc(Cl)c3)sc2C1 | 3.3 | 680 µg/mL (≈ 1540 µM) | 160 µg/mL (≈ 363 µM) | 1620 nM | – | –
8 | CN1CCc2nc(C(=O)Nc3ccccc3CNC(=O)c3cc(Cl)c[nH]3)sc2C1 | 3.2 | 690 µg/mL (≈ 1600 µM) | 170 µg/mL (≈ 395 µM) | 48 nM | 2.2 µM | –
9 | CN1CCc2nc(C(=O)Nc3ccccc3CC(=O)Nc3ccc(Cl)cn3)sc2C1 | 2.8 | 600 µg/mL (≈ 1360 µM) | 100 µg/mL (≈ 226 µM) | 623 nM | 17 µM | –
10 | O=C(Nc1ccccc1CNC(=O)c1ccc(Cl)s1)c1ccc(N2CCOCC2=O)cc1 | 2.8 | < 2.3 µg/mL | < 2.3 µg/mL | 4.1 nM | 0.91 µM | inhibition in vivo at 10 mg/kg (Rattus norvegicus [4]): 17.1%; inhibition in vivo at 10 mg/kg (Rattus norvegicus [5]): 14.1%; inhibition in vivo at 10 mg/kg (Rattus norvegicus [6]): 12.7%; inhibition in vivo at 10 mg/kg (Rattus norvegicus [7]): 12.7%
11 | O=C(NCc1ccccc1C(=O)Nc1ccc(N2CCOCC2=O)cc1)c1ccc(Cl)s1 | 2.5 | 140 µg/mL (≈ 298 µM) | 120 µg/mL (≈ 255 µM) | 9 nM | 1 µM | –
12 | CC(C)N1CCC(C(=O)Nc2ccccc2CNC(=O)c2ccc(Cl)s2)CC1 | 1.5 | > 680 µg/mL | > 680 µg/mL | 204 nM | 5.2 µM | –
13 | CC(C)N1CCC(NC(=O)c2ccccc2CNC(=O)c2ccc(Cl)s2)CC1 | 1.4 | 810 µg/mL (≈ 1930 µM) | > 820 µg/mL | 1930 nM | – | –
14 | CN1CCc2nc(C(=O)Nc3ccccc3CNC(=O)c3ccc(Cl)s3)sc2C1.Cl | – | – | – | – | – | AUC(0-t) at 24 h [8]: 697 ng·h/mL; Tmax [9]: 30 min; Cmax [10]: 83.7 ng/mL; half-life [11]: 228 min
15 | CN1CCc2nc(C(=O)N[C@@H]3CCCC[C@H]3CNC(=O)c3ccc(Cl)s3)sc2C1 (relative stereo) | 3.5 | > 600 µg/mL | 440 µg/mL (≈ 971 µM) | 439 nM | 17 µM | –
16 | CN1CCc2nc(C(=O)N[C@@H]3CCCC[C@@H]3CNC(=O)c3ccc(Cl)s3)sc2C1 (relative stereo) | 3.7 | 800 µg/mL (≈ 1770 µM) | 290 µg/mL (≈ 640 µM) | 27 nM | 3.4 µM | –

Further lines, with some results ahead:

Row | logD [1] | solubility [2] | solubility [3] | IC50 (Coagulation factor X) | Structure (SMILES) | Activity (Plasma) | also measured
17 | 3.3 | 150 µg/mL (≈ 336 µM) | 17 µg/mL (≈ 38 µM) | – | CN1CCc2nc(C(=O)Nc3ccccc3CNC(=O)c3ccc(Cl)s3)sc2C1 | – | –
18 | – | – | – | 5680 nM | CN1CCc2nc(C(=O)NCc3ccccc3NC(=O)c3ccc(Cl)s3)sc2C1 | – | –
19 | 2.2 | 860 µg/mL (≈ 1920 µM) | 120 µg/mL (≈ 268 µM) | 18 nM | CN1CCc2nc(C(=O)Nc3ncccc3CNC(=O)c3ccc(Cl)s3)sc2C1 | 1.5 µM | –
20 | 2.6 | > 590 µg/mL | > 590 µg/mL | 13 nM | CN1CCc2nc(C(=O)Nc3cnccc3CNC(=O)c3ccc(Cl)s3)sc2C1 | 1.8 µM | –
21 | 3.3 | 880 µg/mL (≈ 1960 µM) | > 4.9 µg/mL | 12 nM | CN1CCc2nc(C(=O)Nc3ccncc3CNC(=O)c3ccc(Cl)s3)sc2C1 | 1.4 µM | –
22 | 2.8 | 890 µg/mL (≈ 1990 µM) | 67 µg/mL (≈ 150 µM) | 11 nM | CN1CCc2nc(C(=O)Nc3cccnc3CNC(=O)c3ccc(Cl)s3)sc2C1 | 1 µM | –
23 | 3.1 | > 810 µg/mL | 33 µg/mL (≈ 76.8 µM) | > 10000 nM | CN1CCc2nc(C(=O)Nc3ccccc3CNC(=O)c3ccc(Cl)[nH]3)sc2C1 | – | –
24 | 2.9 | > 640 µg/mL | 100 µg/mL (≈ 224 µM) | 59 nM | CN1CCc2nc(NC(=O)c3ccccc3CNC(=O)c3ccc(Cl)s3)sc2C1 | 2.3 µM | –
